Source: patent US20240180898A1, “USE OF AMINOTHIAZOLE DERIVATIVE IN TREATMENT OF IMMUNE INFLAMMATION” (INNAMUNE PHARMACEUTICAL CO. LTD., priority 2021, published 2024)

Columns and labels:
APP/PS1 transgenic mice = assay: Alzheimer's disease model, APP/PS1 transgenic mice; format: in vivo, mouse
Experimental: Preparation and grouping of Alzheimer's disease mouse models:
The experiment is divided into three groups, namely:
Drug group (APP/PS1+INNA1605 group): APP/PSI transgenic mice were given INNA1605 at a dose of 50 mg/Kg/day (twice a day, 25 mg/Kg each time, intraperitoneal injection once, gavage once);
Model group (APP/PSI group): APP/PSI transgenic mice were given an equal dose of solvent (ddH2O);
Control group: C57BL/6 mice were given an equal dose of solvent (ddH2O).
At 9 months of age, Morris water maze test was conducted to evaluate the spatial learning and memory abilities of APP/PSI mice. After the behavioral experiment was completed, pentobarbital sodium (100 mg/kg) was injected into the abdominal cavity for deep anesthesia. After fully exposing the heart and aorta through thoracotomy, a 20 ml syringe was inserted into the aorta with an infusion needle from the apex of the heart. The needle was fixed and the right atrium was cut open. 30 ml of physiological saline at 4° C. was perfused through the aorta until most of the blood flowed out. The hippocampus and cortical tissue were carefully and quickly separated and stored at −80° C.for subsequent biochemical analysis. The remaining mice were first perfused with 30 ml of 4° C. physiological saline, followed by 30 ml of pre-cooled 4% paraformaldehyde. Then, the whole brain was removed and fixed with 4% paraformaldehyde for another 48 hours. After dehydration, transparency, paraffin embedding, and sectioning, immunohistochemical analysis was performed.

[1] = test system: macrophages derived from mouse bone marrow; assay: LPS-induced secretion of inflammatory factors from macrophages, ELISA of supernatant; format: cell-based; conditions: 30 umol/L 2 hours before LPS 500 ng/ml for 24 hours; FIG. 2
Experimental: macrophage grouping (in vitro):
Cultivate macrophages derived from mouse bone marrow in vitro.
The experiment was divided into 8 groups, namely: • Control group (untreated mouse bone marrow-derived macrophages), • LPS group (500 ng/ml LPS stimulated macrophages for 24 hours), • LPS+TJ-2 group (2 hours before LPS stimulation, administer 30 umol/L TJ-2 drug stimulation), • LPS+TJ-5 group (2 hours before LPS stimulation, administer 30 umol/L TJ-5 drug stimulation), • LPS+TJ-8 group (2 hours before LPS stimulation, administer 30 umol/L TJ-8 drug stimulation), • LPS+TJ-9 group (2 hours before LPS stimulation, administer 30 umol/L TJ-9 drug stimulation), • LPS+TJ-11 group (2 hours before LPS stimulation, administer 30 umol/L TJ-11 drug stimulation), • and LPS+TJ-12 group (2 hours before LPS stimulation, administer 30 umol/L TJ-12 drug stimulation).
After 24 hours of LPS stimulation, the cell culture supernatant was removed and ELISA was performed to detect the concentration of various inflammatory factors in the supernatant.

[2] = test system: bone marrow derived macrophages; assay: bone marrow derived macrophage pyroptosis model (LPS + ATP); format: cell-based
Experimental: Preparation and grouping of bone marrow derived macrophage pyroptosis model:
Model preparation: After LPS (500 ng/ml) stimulation of bone marrow derived macrophages for 6 hours, ATP (5 mmol/L) stimulation for 2 hours, followed by cell collection and supernatant detection.
The experiment was divided into four groups, namely: • Control group (normal cell culture medium), • Model group (with LPS and ATP stimulation added to the culture medium), • TJ-5 (10 μmol/L) group (2 hours before LPS stimulation, administer 10 μmol/L TJ-5 drug stimulation), • TJ-5 (30 μmol/L) group (2 hours before LPS stimulation, administer 30 μmol/L TJ-5 drug stimulation).
Collect cells and their supernatant for detection at the endpoint of the experiment.

[3] = test system: mouse spleen derived B cells; assay: R848 induced lupus like B cell immune disorder model in vitro; format: cell-based; conditions: TJ-5 10 or 20 μmol/L 3 hours before R848 500 ng/ml 48 hours
Experimental: Preparation and grouping of an in vitro lupus like B cell immune disorder model:
Model preparation: Mouse spleen derived B cells were purified using a magnetic bead sorting kit and cultured in vitro. Stimulating factor CD40L was added to maintain the long-term survival of B cells in vitro. Lupus like B cell immune disorders were induced by stimulating B cells with R848 (500 ng/ml) for 48 hours.
The experiment is divided into four groups, namely: • Control group (without any treatment, normal cultured B cells); • R848 group (model group): Stimulate B cells with R848 (500 ng/ml) for 48 hours; • TJ-5 (10 μM) Group: First use TJ-5 (10 μmol/L) Pre stimulate B cells for 3 hours, then stimulate B cells with R848 (500 ng/ml) for 48 hours; • TJ-5 (20 μM) Group: First use TJ-5 (20 μmol/L) Pre stimulate B cells […] for 3 hours, then stimulate B cells with R848 (500 ng/ml) for 48 hours.
Collect cells and cell culture supernatant for detection after R848 stimulation is completed.

high-fat diet obese mice = assay: high-fat diet obesity and fatty liver model; format: in vivo, mouse
From the text: Feed B6 mice with a high-fat diet (HFD) to create an obesity model. Divide the animals into three groups: normal diet group, high-fat diet group, and high-fat diet group with INNA1605 (TJ-M2010-5) added at the same time. Conduct three control groups to measure body weight, inguinal and epididymal fat size, liver size, and examine the liver and various adipose tissues of each group.

[4] = drug concentration in blood after skin ointment on maximum body area; format: in vivo; conditions: skin ointments applied to the maximum body area
heart grafts = assay: allogeneic heart transplantation, Balb/c to B6; format: in vivo, mouse
From the text: The paired mice for transplantation: The donor mouse is a balb/c mouse; The recipient mouse is B6 mouse. Transplant the donor's skin or heart separately to the recipient. After skin transplantation, INNA1605 (TJ-M2010-5) was continuously used for 2 weeks and then stopped. About 38% of the transplanted skin was permanently non-rejection. After administering TJ-M2010-5 for two weeks after allogeneic heart transplantation, 60% of the heart grafts were permanently not rejected. In these surviving recipient mice (non-rejection), the hearts of the same donor mice were transplanted for a second time without any treatment. The result was 100% non-rejection of the heart, confirming the development of immune tolerance against the same antigen (see FIGS. 34 and 35).

[5] = immunohistochemistry, vs model group
[6] = TJ-5 10 or 30 μmol/L before LPS + ATP

SMILES: O=C(CCN1CCN(Cc2ccccc2)CC1)Nc1nc(-c2ccccc2)cs1 [INNA1605, 3-(4-benzylpiperazine-1-yl)-N-(4-phenylthiazole-2-yl) propionamide]
- memory (Morris water maze) (APP/PS1 transgenic mice; 50 mg/Kg/day, 9 months of age): better memory than APP/PS1 transgenic mice treated with only ddH2O
- Iba-1 positive microglia (whole brain, cortex, hippocampus) (APP/PS1 transgenic mice; [5]): significantly reduced compared to the model group
- brain Aβ deposition (whole brain, cortex, hippocampus) (APP/PS1 transgenic mice; [5]): significantly less
- inhibitory effect on inflammatory factors compared among the compounds [1]: have the same inhibitory effect on inflammatory factors
- secretion of various inflammatory factors in macrophages (IL-1β, Il-6, TNF-α, IL-18, IL-17) [1]: can inhibit the secretion of various inflammatory factors in macrophages
- apoptosis (PI+ cells) of bone marrow derived macrophages ([2]; TJ-5 10 or 30 μmol/L 2 hours before LPS 500 ng/ml 6 hours + ATP 5 mmol/L 2 hours): can inhibit the apoptosis of bone marrow derived macrophages induced by LPS and ATP
- activation and cleavage of GSDMD [2, 6]: significantly inhibits the activation and cleavage of GSDMD
- assembly and activation of NLRP3 inflammasomes [2, 6]: can block the assembly and activation of NLRP3 inflammasomes
- classical and non classical cell pyroptosis pathways [2, 6]: inhibit both classical and non classical cell pyroptosis pathways
- maturation and release of Pro-IL-1b and Pro-IL-18 [2, 6]: inhibiting the maturation and release
- secretion of LDH in cell culture supernatant [2, 6]: reduce the secretion of LDH
- secretion of various inflammatory factors [2, 6]: reducing the secretion of various inflammatory factors
- abnormal activation and differentiation of B cells [3]: can inhibit abnormal activation and differentiation of B cells
- secretion of B cell autoantibodies and inflammatory factors [3]: inhibit the secretion of B cell autoantibodies and inflammatory factors
- adipose tissue, liver, and body weight (high-fat diet obese mice; B6 mice, added with high-fat diet, FIG. 37): significantly smaller than those of the obese group and close to those of normal mice
- weight of obese mice fed with high-fat diet (high-fat diet obese mice; FIG. 25): significantly reduced the weight of high-fat diet obese mice
- lipid droplets in the adipose tissue and liver (high-fat diet obese mice; pathological examination, FIG. 38): significantly smaller than those of the obese group, and were similar to normal mice
- drug concentration in the blood [4]: 2 to 3 ng/mL
- heart grafts permanently not rejected (heart grafts; administered for two weeks): 60%
- non-rejection of second heart of the same donor mice (heart grafts; surviving recipient mice, second transplant without any treatment): 100%
